Reference: ChEMBL document CHEMBL3880421, “Indazole compounds and pharmaceutical compositions for inhibiting protein kinases, and methods for their use” (2003)

Key:
[1] = Antiproliferative activity against VEGF-stimulated HUVEC cells assessed as reduction in cell viability at 2 nM preincubated for 1 hr followed by addition of VEGF measured after 72 hrs by MTT assay; type: functional; details: Homo sapiens
[2] = Antiproliferative activity against VEGF-stimulated HUVEC cells assessed as reduction in cell viability at 0.5 nM preincubated for 1 hr followed by addition of VEGF measured after 72 hrs by MTT assay; type: functional; details: Homo sapiens

## Cc1cc(NC(=O)c2ccccc2Nc2ccc3c(/C=C/c4ccccn4)n[nH]c3c2)on1
[1]
  inhibition at 0.002 µM: 31%
[2]
  inhibition at 0.0005 µM: 26%

## CCCCCCC(C)NC(=O)c1ccccc1Nc1ccc2c(/C=C/c3ccccn3)n[nH]c2c1 (stereo unspecified)
[1]
  inhibition at 0.002 µM: 63%
[2]
  inhibition at 0.0005 µM: 35%

## O=C(NCCc1ccncc1)c1ccccc1Nc1ccc2c(/C=C/c3ccccn3)n[nH]c2c1
[1]
  inhibition at 0.002 µM: 22%
[2]
  inhibition at 0.0005 µM: 18%

## O=C(NCC(O)c1ccccc1)c1ccccc1Nc1ccc2c(/C=C/c3ccccn3)n[nH]c2c1 (stereo unspecified)
[1]
  inhibition at 0.002 µM: 55%
[2]
  inhibition at 0.0005 µM: 12%

## CN(C)CCCNC(=O)c1ccccc1Nc1ccc2c(/C=C/c3ccccn3)n[nH]c2c1
[1]
  inhibition at 0.002 µM: 1%
[2]
  inhibition at 0.0005 µM: 6%

## O=C(O)CNC(=O)CCNC(=O)c1ccccc1Nc1ccc2c(/C=C/c3ccccn3)n[nH]c2c1
[1]
  inhibition at 0.002 µM: -9%
[2]
  inhibition at 0.0005 µM: 49%

## O=C(NCC1(O)CCCCC1)c1ccccc1Nc1ccc2c(/C=C/c3ccccn3)n[nH]c2c1
[1]
  inhibition at 0.002 µM: -19%
[2]
  inhibition at 0.0005 µM: 26%

## O=C(NCC(O)CO)c1ccccc1Nc1ccc2c(/C=C/c3ccccn3)n[nH]c2c1 (stereo unspecified)
[1]
  inhibition at 0.002 µM: 20%
[2]
  inhibition at 0.0005 µM: 22%

## O=C(O)CCCNC(=O)c1ccccc1Nc1ccc2c(/C=C/c3ccccn3)n[nH]c2c1
[1]
  inhibition at 0.002 µM: 20%
[2]
  inhibition at 0.0005 µM: 16%

## NC(=O)[C@H]1CCCC[C@H]1NC(=O)c1ccccc1Nc1ccc2c(/C=C/c3ccccn3)n[nH]c2c1
[1]
  inhibition at 0.002 µM: 39%
[2]
  inhibition at 0.0005 µM: 21%

## Cn1cccc1C(=O)NNC(=O)c1ccccc1Nc1ccc2c(/C=C/c3ccccn3)n[nH]c2c1
[1]
  inhibition at 0.002 µM: 49%
[2]
  inhibition at 0.0005 µM: 68%

## CC(=O)NCCNC(=O)c1ccccc1Nc1ccc2c(/C=C/c3ccccn3)n[nH]c2c1
[1]
  inhibition at 0.002 µM: 27%
[2]
  inhibition at 0.0005 µM: 15%

## Nc1ccc(CCNC(=O)c2ccccc2Nc2ccc3c(/C=C/c4ccccn4)n[nH]c3c2)cc1
[1]
  inhibition at 0.002 µM: 31%
[2]
  inhibition at 0.0005 µM: 32%

## CCOC(CCNC(=O)c1ccccc1Nc1ccc2c(/C=C/c3ccccn3)n[nH]c2c1)OCC
[1]
  inhibition at 0.002 µM: 70%
[2]
  inhibition at 0.0005 µM: 30%

## Cc1cnc(NC(=O)c2ccccc2Nc2ccc3c(/C=C/c4ccccn4)n[nH]c3c2)s1
[1]
  inhibition at 0.002 µM: 92%
[2]
  inhibition at 0.0005 µM: 20%

## CC(NC(=O)c1ccccc1Nc1ccc2c(/C=C/c3ccccn3)n[nH]c2c1)c1ccccc1 (stereo unspecified)
[1]
  inhibition at 0.002 µM: 94%
[2]
  inhibition at 0.0005 µM: 30%

## O=C(NCCCO)c1ccccc1Nc1ccc2c(/C=C/c3ccccn3)n[nH]c2c1
[1]
  inhibition at 0.002 µM: 23 to 31%
[2]
  inhibition at 0.0005 µM: 8 to 24%

## Cc1csc(NC(=O)c2ccccc2Nc2ccc3c(/C=C/c4ccccn4)n[nH]c3c2)n1
[1]
  inhibition at 0.002 µM: 95%
[2]
  inhibition at 0.0005 µM: 15%

## CCCC(CO)NC(=O)c1ccccc1Nc1ccc2c(/C=C/c3ccccn3)n[nH]c2c1 (stereo unspecified)
[1]
  inhibition at 0.002 µM: 40%
[2]
  inhibition at 0.0005 µM: 44%

## COC[C@@H]1CCCN1NC(=O)c1ccccc1Nc1ccc2c(/C=C/c3ccccn3)n[nH]c2c1
[1]
  inhibition at 0.002 µM: 7%
[2]
  inhibition at 0.0005 µM: 13%

## Cc1cc(C(=O)NNC(=O)c2ccccc2Nc2ccc3c(/C=C/c4ccccn4)n[nH]c3c2)[nH]n1
[1]
  inhibition at 0.002 µM: 39%
[2]
  inhibition at 0.0005 µM: 26%

## O=C(N[C@H](CO)Cc1c[nH]cn1)c1ccccc1Nc1ccc2c(/C=C/c3ccccn3)n[nH]c2c1
[1]
  inhibition at 0.002 µM: 24%
[2]
  inhibition at 0.0005 µM: 22%

## NC(=O)[C@H](CO)NC(=O)c1ccccc1Nc1ccc2c(/C=C/c3ccccn3)n[nH]c2c1
[1]
  inhibition at 0.002 µM: 4%
[2]
  inhibition at 0.0005 µM: 17%

## CC(CNC(=O)c1ccccc1Nc1ccc2c(/C=C/c3ccccn3)n[nH]c2c1)c1ccccc1 (stereo unspecified)
[1]
  inhibition at 0.002 µM: 83%
[2]
  inhibition at 0.0005 µM: 26%

## Cc1noc(NC(=O)c2ccccc2Nc2ccc3c(/C=C/c4ccccn4)n[nH]c3c2)c1C
[1]
  inhibition at 0.002 µM: 36%
[2]
  inhibition at 0.0005 µM: 15%

## O=C(NCCc1ccccc1)c1ccccc1Nc1ccc2c(/C=C/c3ccccn3)n[nH]c2c1
[1]
  inhibition at 0.002 µM: 99%
[2]
  inhibition at 0.0005 µM: 15%

## O=C(NCCC1OCCO1)c1ccccc1Nc1ccc2c(/C=C/c3ccccn3)n[nH]c2c1
[1]
  inhibition at 0.002 µM: 68%
[2]
  inhibition at 0.0005 µM: 38%

## O=C(NC1OCCO1)c1ccccc1Nc1ccc2c(/C=C/c3ccccn3)n[nH]c2c1
[1]
  inhibition at 0.002 µM: 63%
[2]
  inhibition at 0.0005 µM: 35%

## O=C(NCc1cccnc1)c1ccccc1Nc1ccc2c(/C=C/c3ccccn3)n[nH]c2c1
[1]
  inhibition at 0.002 µM: 78%
[2]
  inhibition at 0.0005 µM: 30%

## CCC(CC)NC(=O)c1ccccc1Nc1ccc2c(/C=C/c3ccccn3)n[nH]c2c1
[1]
  inhibition at 0.002 µM: 14%
[2]
  inhibition at 0.0005 µM: 25%

## CC(C)CCC(C)NC(=O)c1ccccc1Nc1ccc2c(/C=C/c3ccccn3)n[nH]c2c1 (stereo unspecified)
[1]
  inhibition at 0.002 µM: 44%
[2]
  inhibition at 0.0005 µM: 6%

## C[C@H](CO)NC(=O)c1ccccc1Nc1ccc2c(/C=C/c3ccccn3)n[nH]c2c1
[1]
  inhibition at 0.002 µM: 20%
[2]
  inhibition at 0.0005 µM: 13%

## CC(C)(C)ONC(=O)c1ccccc1Nc1ccc2c(/C=C/c3ccccn3)n[nH]c2c1
[1]
  inhibition at 0.002 µM: 64%
[2]
  inhibition at 0.0005 µM: -3%
